Source: ChEMBL document CHEMBL3046635, “Synthesis and Herbicidal Activity of New Pyrazole-4-carboxamide Derivatives” (J Pestic Sci, 2004)
The source made the active and inactive calls.

Legend:
[1] = system: Schoenoplectiella juncoides; assay: Pre-emergence herbicidal activity against Schoenoplectiella juncoides at 500 g a.i/ha measured after 14 days; type: functional, organism-based
[2] = system: Cyperus difformis; assay: Pre-emergence herbicidal activity against Cyperus difformis at 500 g a.i/ha measured after 14 days; type: functional, organism-based
[3] = system: Pontederia vaginalis; assay: Pre-emergence herbicidal activity against Monochoria vaginalis assessed as bleaching of stem/leaf parts; type: functional, organism-based
[4] = system: Cyperus difformis; assay: Pre-emergence herbicidal activity against Cyperus difformis assessed as bleaching of stem/leaf parts; type: functional, organism-based
[5] = system: Cyperus difformis; assay: Post-emergence herbicidal activity against Cyperus difformis assessed as bleaching of stem/leaf parts; type: functional, organism-based; further: test concentration or dose not given here
[6] = system: Lindernia procumbens; assay: Pre-emergence herbicidal activity against Lindernia procumbens at 100 g a.i/ha measured after 14 days; type: functional, organism-based
[7] = system: Ammannia multiflora; assay: Post-emergence herbicidal activity against Ammannia multiflora assessed as bleaching of stem/leaf parts; type: functional, organism-based; further: test concentration or dose not given here
[8] = system: Pontederia vaginalis; assay: Pre-emergence herbicidal activity against Monochoria vaginalis at 500 g a.i/ha measured after 14 days; type: functional, organism-based
[9] = system: Echinochloa oryzicola; assay: Pre-emergence herbicidal activity against Echinochloa oryzicola at 500 g a.i/ha measured after 14 days; type: functional, organism-based
[10] = system: Echinochloa oryzicola; assay: Pre-emergence herbicidal activity against Echinochloa oryzicola assessed as bleaching of stem/leaf parts; type: functional, organism-based
[11] = system: Elatine triandra; assay: Pre-emergence herbicidal activity against Elatine triandra assessed as bleaching of stem/leaf parts; type: functional, organism-based
[12] = system: Elatine triandra; assay: Post-emergence herbicidal activity against Elatine triandra assessed as bleaching of stem/leaf parts; type: functional, organism-based; further: test concentration or dose not given here
[13] = system: Pontederia vaginalis; assay: Pre-emergence herbicidal activity against Monochoria vaginalis at 100 g a.i/ha measured after 14 days; type: functional, organism-based
[14] = system: Rotala indica; assay: Pre-emergence herbicidal activity against Rotala indica at 100 g a.i/ha measured after 14 days; type: functional, organism-based
[15] = system: Eleocharis acicularis; assay: Post-emergence herbicidal activity against Eleocharis acicularis assessed as bleaching of stem/leaf parts; type: functional, organism-based; further: test concentration or dose not given here
[16] = system: Ammannia multiflora; assay: Pre-emergence herbicidal activity against Ammannia multiflora at 100 g a.i/ha measured after 14 days; type: functional, organism-based
[17] = system: Lindernia procumbens; assay: Pre-emergence herbicidal activity against Lindernia procumbens assessed as bleaching of stem/leaf parts; type: functional, organism-based
[18] = system: Rotala indica; assay: Pre-emergence herbicidal activity against Rotala indica assessed as bleaching of stem/leaf parts; type: functional, organism-based
[19] = system: Rotala indica; assay: Post-emergence herbicidal activity against Rotala indica assessed as bleaching of stem/leaf parts; type: functional, organism-based; further: test concentration or dose not given here
[20] = system: Ammannia multiflora; assay: Pre-emergence herbicidal activity against Ammannia multiflora at 500 g a.i/ha measured after 14 days; type: functional, organism-based
[21] = system: Echinochloa oryzicola; assay: Pre-emergence herbicidal activity against Echinochloa oryzicola at 100 g a.i/ha measured after 14 days; type: functional, organism-based
[22] = system: Cyperus difformis; assay: Pre-emergence herbicidal activity against Cyperus difformis at 100 g a.i/ha measured after 14 days; type: functional, organism-based
[23] = system: Schoenoplectiella juncoides; assay: Post-emergence herbicidal activity against Schoenoplectiella juncoides assessed as bleaching of stem/leaf parts; type: functional, organism-based; further: test concentration or dose not given here
[24] = system: Elatine triandra; assay: Pre-emergence herbicidal activity against Elatine triandra at 100 g a.i/ha measured after 14 days; type: functional, organism-based
[25] = system: Oryza sativa; assay: Phytotoxicity against Oryza sativa cv. Koshihikari (rice) at 100 g a.i/ha measured after 14 days; type: organism-based; conditions: in vivo, 336 h
[26] = system: Echinochloa oryzicola; assay: Post-emergence herbicidal activity against Echinochloa oryzicola assessed as bleaching of stem/leaf parts; type: functional, organism-based; further: test concentration or dose not given here
[27] = system: Rotala indica; assay: Pre-emergence herbicidal activity against Rotala indica at 500 g a.i/ha measured after 14 days; type: functional, organism-based
[28] = system: Elatine triandra; assay: Pre-emergence herbicidal activity against Elatine triandra at 500 g a.i/ha measured after 14 days; type: functional, organism-based
[29] = system: Lindernia procumbens; assay: Pre-emergence herbicidal activity against Lindernia procumbens at 500 g a.i/ha measured after 14 days; type: functional, organism-based
[30] = system: Schoenoplectiella juncoides; assay: Pre-emergence herbicidal activity against Schoenoplectiella juncoides at 100 g a.i/ha measured after 14 days; type: functional, organism-based
[31] = system: Eleocharis acicularis; assay: Pre-emergence herbicidal activity against Eleocharis acicularis assessed as bleaching of stem/leaf parts; type: functional, organism-based
[32] = system: Pontederia vaginalis; assay: Post-emergence herbicidal activity against Monochoria vaginalis assessed as bleaching of stem/leaf parts; type: functional, organism-based; further: test concentration or dose not given here
[33] = system: Oryza sativa; assay: Phytotoxicity against Oryza sativa cv. Koshihikari (rice) at 500 g a.i/ha measured after 14 days; type: organism-based; conditions: in vivo, 336 h
[34] = system: Ammannia multiflora; assay: Pre-emergence herbicidal activity against Ammannia multiflora assessed as bleaching of stem/leaf parts; type: functional, organism-based
[35] = system: Lindernia procumbens; assay: Post-emergence herbicidal activity against Lindernia procumbens assessed as bleaching of stem/leaf parts; type: functional, organism-based; further: test concentration or dose not given here
[36] = system: Schoenoplectiella juncoides; assay: Pre-emergence herbicidal activity against Schoenoplectiella juncoides assessed as bleaching of stem/leaf parts; type: functional, organism-based
[37] = system: Eleocharis acicularis; assay: Pre-emergence herbicidal activity against Eleocharis acicularis at 500 g a.i/ha measured after 14 days; type: functional, organism-based

| SMILES | Activity [1] | Activity [2] | Activity [3] | Activity [4] | Activity [5] | Activity [7] | Activity [8] | Activity [9] | Activity [10] | Activity [11] | Activity [12] | Activity [15] | Activity [17] | Activity [18] | Activity [19] | Activity [20] | Activity [23] | Activity [26] | Activity [27] | Activity [28] | further results |
| --- | --- | --- | --- | --- | --- | --- | --- | --- | --- | --- | --- | --- | --- | --- | --- | --- | --- | --- | --- | --- | --- |
| CCONC(=O)c1cn(C(F)F)nc1OCc1cccc(C(F)(F)F)c1 | Active | Active | Active | Active | Active | Active | Active | Active | Active | Active | Active | Active | Active | Active | Active | Active | Active | Active | Active | Active | Activity [6]: Active; Activity [13]: Active; Activity [14]: Active; Activity [16]: Active; Activity [21]: inactive; Activity [22]: Active; Activity [24]: Active; Activity [25]: Non-toxic; Activity [29]: Active; Activity [30]: Active; Activity [31]: Active; Activity [32]: Active; Activity [33]: Non-toxic; Activity [34]: Active; Activity [35]: Active; Activity [36]: Active |
| CNC(=O)c1cn(C)nc1OCc1cccc(C(F)(F)F)c1 | inactive | inactive | Active | Active | Active | Active | inactive | inactive | Active | Active | Active | Active | Active | Active | Active | inactive | Active | Active | inactive | inactive | Activity [37]: inactive; Activity [29]: inactive; Activity [31]: Active; Activity [32]: Active; Activity [33]: Non-toxic; Activity [34]: Active; Activity [35]: Active; Activity [36]: Active |
| C#CCNC(=O)c1cn(C)nc1OCc1cccc(C(F)(F)F)c1 | inactive | inactive | Active | Active | Active | Active | inactive | inactive | Active | Active | Active | Active | Active | Active | Active | inactive | Active | Active | inactive | inactive | Activity [37]: inactive; Activity [29]: inactive; Activity [31]: Active; Activity [32]: Active; Activity [33]: Non-toxic; Activity [34]: Active; Activity [35]: Active; Activity [36]: Active |
| CCONC(=O)c1cn(C(C)(C)C)nc1OCc1cccc(C(F)(F)F)c1 | inactive | inactive | Active | Active | Active | Active | inactive | inactive | Active | Active | Active | Active | Active | Active | Active | inactive | Active | Active | inactive | inactive | Activity [37]: inactive; Activity [29]: inactive; Activity [31]: Active; Activity [32]: Active; Activity [33]: Non-toxic; Activity [34]: Active; Activity [35]: Active; Activity [36]: Active |
| CCN(C(=O)c1cn(C)nc1OCc1cccc(C(F)(F)F)c1)C1CCCCC1 | inactive | inactive | Active | Active | Active | Active | inactive | inactive | Active | Active | Active | Active | Active | Active | Active | inactive | Active | Active | inactive | inactive | Activity [37]: inactive; Activity [29]: inactive; Activity [31]: Active; Activity [32]: Active; Activity [33]: Non-toxic; Activity [34]: Active; Activity [35]: Active; Activity [36]: Active |
| Cc1c(C(=O)NOc2ccc(F)cc2F)c(OCc2cccc(C(F)(F)F)c2)nn1C | Active | inactive | Active | Active | Active | Active | inactive | inactive | Active | Active | Active | Active | Active | Active | Active | inactive | Active | Active | inactive | inactive | Activity [37]: inactive; Activity [29]: inactive; Activity [31]: Active; Activity [32]: Active; Activity [33]: Non-toxic; Activity [34]: Active; Activity [35]: Active; Activity [36]: Active |
| Cn1nc(OCc2cccc(C(F)(F)F)c2)c(C(=O)NOc2ccc(F)cc2F)c1Cl | inactive | inactive | Active | Active | Active | Active | inactive | inactive | Active | Active | Active | Active | Active | Active | Active | inactive | Active | Active | inactive | inactive | Activity [37]: inactive; Activity [29]: inactive; Activity [31]: Active; Activity [32]: Active; Activity [33]: Non-toxic; Activity [34]: Active; Activity [35]: Active; Activity [36]: Active |
| Cn1cc(C(=O)Nc2ccc(C(C)(C)C)cc2)c(OCc2cccc(C(F)(F)F)c2)n1 | inactive | inactive | Active | Active | Active | Active | inactive | inactive | Active | Active | Active | Active | Active | Active | Active | inactive | Active | Active | inactive | inactive | Activity [37]: inactive; Activity [29]: inactive; Activity [31]: Active; Activity [32]: Active; Activity [33]: Non-toxic; Activity [34]: Active; Activity [35]: Active; Activity [36]: Active |
